This is an account of results in patent US11072592B2, “Small molecules that enable cartilage rejuvenation” (The Regents of the University of California, priority 2015, dated 2021).

Data set [1] deals with human adult articular chondrocytes. Briefly: Cellular metabolism (Seahorse ECAR and OCR), human adult articular chondrocytes. Format: cell-based. The protocol:
The mitochondrial assay cellular oxygen consumption and mitochondrial function was carried out to measure basal respiration using XF24 instrument (Seahorse Biosciences) according to manufacturer instructions. Tested cells (100,000 cells per well) we plated into 24-well test plates 48 hours prior to experimentation. Oxygen consumption rates and extracellular acidification rates were measured every 10 minutes for up to 60 minutes (Rate 1-6).

The test system of data set [2] is pSTAT3 and MYC. As to the kind of experiment: pSTAT3 and MYC in other cells/tissues. Particulars: embryonic stem cells and the heart; unpublished preliminary data. Format: cell-based. From the text: Based on the functional properties elicited by RCGD 423, we propose that it (or compounds functionally similar to it) may represent core components of treatment regimens for articular cartilage injury.

Data set [3] relates to human adult articular chondrocytes. Briefly: RNA-Seq of human adult articular chondrocytes. Format: cell-based. Conditions: n=7.
In a further data set the test system is adult chondrocytes. Briefly: Collagen 2 production by adult chondrocytes. Conditions: compared with control (DMSO). Format: cell-based. From the text:
FIGS. 21A-21B. […] (FIG. 21A) cell sorting results for isotype (left), BMPR18^neg (middle), and BMPR18+ cells (right). (FIG. 21B) CRM-423 (right panel) stimulates collagen 2 product by adult chondrocytes compared with control (DMSO, left panel).
Cmpd 423 stimulates collagen 2 product by adult chondrocytes (FIG. 21B).

A further data set deals with chondrocyte cultures. Briefly: Toxicity in chondrocyte cultures. Format: cell-based. The protocol:
In a clinical setting, treatment with exogenous growth factors would present a difficult and expensive strategy. To address this, our group designed a high throughput screen to identify small molecule modulators of chondrogenic differentiation based on the prevention of the hypertrophy-associated marker collagen X (COLX). […] Importantly, the stimulatory effect of CRMs on p-STAT3 and c-MYC was reversible; protein levels of both p-STAT-3 and c-MYC decreased 48 hours after CRM-398 or -423 withdrawal (data not shown). Identification of such compounds can not only allow us to control differentiation of chondrocytes, but also manipulate the expression of STAT3 and c-MYC to achieve rejuvenation of adult chondrocytes. CRM-398 and -423 can be tested in parallel with LIF and their effects on adult articular chondrocyte activation can be assessed as described herein.

The subject of data set [4] is pig articular cartilage biopsy punches with defects. As to the kind of experiment: Repair of defects in adult pig articular cartilage biopsy punches in vitro. Format: cell-based. Particulars: Matrigel with microspheres, 5 weeks of culture. As for the experimental part:
(§1) FIGS. 31A-31D. […] (FIG. 31A) Experiments were conducted to test the tissue reparative function of compounds disclosed herein. FIG. 31A depicts histograms of amounts of glycosaminoglycans (GAGs) and collagen 2 observed under control conditions and after administration of RCGD 423. (FIG. 31B) The duration of the effects elicited by RCGD 423 was determined by applying the drug for 24 hours and then washing it out. Protein levels of pSTAT3 and MYC were determined at the indicated time points after wash out; histone H3 was used as a loading control. (FIG. 31C) Protein levels of MYC and pSTAT3 in adult pig articular chondrocytes were used to determine the time frame in which release of RCGD 423 from PLGA microspheres reaches efficacious levels. Supernatant from drug-loaded PLGA microspheres was harvested at the indicated intervals and applied to pig chondrocytes. Histone H3 was used as a loading control. (FIG. 31D) Repair in a tissue context was assessed by removing small explants from a biopsy punch of adult pig articular cartilage. Matrigel with or without RCGD 423-loaded microspheres was applied to the defects. Safranin O staining was performed on sections of explants following 5 weeks of culture; border of defect and intact tissue is shown.
(§2) We also tested whether RCGD 423 could initiate healing of small defects generated on the surface of intact articular cartilage. […]

The test system of data set [5] is pSTAT3 and MYC. Briefly: Duration of pSTAT3/MYC induction after wash out or release from PLGA microspheres. Format: cell-based, pig. Particulars: drug applied 24 hours, then washed out. The protocol:
as §1, §2

Another data set deals with human fetal chondrocytes. Briefly: Chondrocyte terminal differentiation (COLX expression, alkaline phosphatase) in human fetal chondrocytes. Format: cell-based. From the text:
From a therapeutic and regulatory standpoint, small molecules represent a highly attractive modality for manipulating cell biology. To this end, we conducted a high throughput screen to discover small molecules that regulate chondrocyte differentiation. As a readout for the screen, we chose mice carrying a transgenic mCherry reporter (Maye et al., 2011) for expression of Col10a1 (COL10). COL10 expression, along with alkaline phosphatase (AP) levels, increases during later stages of chondrocyte differentiation, concomitant with withdrawal from the cell cycle. […] To conduct the screen, total limb cells were isolated from Col10a1-mCherry transgenic embryos and cultured in the presence of BMP-4, a driver of chondrocyte hypertrophy (Wu et al., 2013); 170,000 compounds were assayed for their ability to decrease the mCherry signal in live cells under these conditions (FIG. 27A). Out of this first dataset, 469 molecules were selected for confirmatory screening. This number was further reduced to 75 verified compounds that blocked increases in mCherry signal (FIG. 27B). Additional vetting led to the selection of Regulator of Cartilage Growth and Differentiation (RCGD) 423 as the primary compound for continued characterization. The ability of RCGD 423 to inhibit COL10 expression in human cells was confirmed, and AP activity was employed as a supplemental readout of chondrocyte differentiation.
Cells were fixed with 3.7% formaldehyde and stained for alkaline phosphatase activity with SigmaFast 5-bromo-4-chloro-3-indolyl phosphate/4-nitro blue tetrazolium (BCIP/NBT) (Sigma Aldrich, St. Louis, Mo.) according to the manufacturer's protocol.

Another data set concerns BMPR1B+ chondrocytes. As to the kind of experiment: Retention of BMPR1B+ chondrocytes in culture (flow cytometry). Format: cell-based, pig. As for the experimental part:
FIG. 35. RCGD 423 Preserves BMPR1B+ Chondrocytes in Culture. Adult pig chondrocytes were cultured in the presence of various cytokines or RCGD 423 and the number of cells expressing BMPR1B were quantitated using flow cytometry. Know mitogens for cartilage, including PDGF-BB and FGF2, promoted dramatic loss of BMPR1B^+ cells. In contrast, RCGD 423 and LIF acted to maintain cells with the BMPR1B+ phenotype.
BMPR1B+LIFR+ human adult articular chondrocytes were sorted using FACS and deposited in 96-well culture plates at density 10,000 cells per well in DMEM/F12 culture medium (Invitrogen) supplemented with 1% FBS. Growth factors or RCGD 423 were added at the time of plating. After 1, 3 and 7 days cultures were re-analyzed with FACS using an antibody against BMPR1B.
A general note: Flow cytometry measures light scatter and fluorescence of single cells or particles in a stream.

As for `Brc1ccc(Nc2nc(-c3ccccc3)cs2)cc1` [RCGD 423, N-(4-Bromophenyl)-4-phenyl-1,3-thiazol-2-amine], in data set [1], the cellular respiration entry was “increased” and the levels of glycolysis entry is on record as “unchanged”. The “pSTAT3 and MYC proteins in other cells/tissues” value in the data set on pSTAT3 and MYC [2] was “promotes increases”. In data set [3], the “enriched transcripts (increased more than 1.5-fold in 4/7 replicates)” value is reported as 1,244. The “collagen 2 production by adult chondrocytes” value in the data set with adult chondrocytes is “stimulates”. In the data set with chondrocyte cultures, the “toxicity in chondrocyte cultures” value was “no toxicity”. Besides, in data set [4], the “repair / remodeling of cartilage defects” value is recorded as “promotes cartilage repair”. In the data set on pSTAT3 and MYC [5], the “time after drug removal at which increases in pSTAT3 and MYC are observed” value is on record as “up to 7 days”. Moreover, in the data set on human fetal chondrocytes, the “COL10 expression in human cells” value was “inhibit”. The “alkaline phosphatase (AP) levels” value with human fetal chondrocytes (fetal cartilage treated with BMP-4) is reported as “significantly reduced”. Moreover, in the data set on human fetal chondrocytes (human fetal chondrocytes, 1 μM), the “terminal differentiation (COLX expression)” value is reported as “significant inhibition”. The “BMPR1B+ chondrocytes in culture” value with BMPR1B+ chondrocytes is listed as “helped maintain”.
